Source: US11471448B2 (priority 2020, dated 2022)
Where a name gives a salt, the structure may show the parent alone.

Experiments:
[1] = system: SARS-CoV-2 clinical isolate (2019-nCoV/USA-WA1/2020); assay: Anti-viral activity against SARS-CoV-2 in HBEC air-liquid-interface cultures (apical viral titer by TCID50); format: cell-based
[2] = system: patients with COVID-19 pneumonia; assay: Pilot study / compassionate use of opaganib in hospitalized COVID-19 pneumonia patients; format: in vivo, human
Description: Return to room air or a specific SpO2 oxygen saturation on room air. Assessment of on-treatment viral load changes, and changes in D-dimer, cardiac troponin, LDH and ferritin levels. Study Design:
Patients entered a screening period of up to 1 week. Eligible patients entered the treatment period for up to 2 weeks. All participants were followed for 2 weeks after their last dose of study drug, at the end of the 2 week treatment period, or once they had 2 consecutive daily negative viral swabs for the COVID-19 virus or at after premature drug discontinuation prior to Day 14. The maximum duration of study participation was 35 days […].
• 1. Adult male or female≥18 to ≤75 years of age, inclusive • 2. Proven COVID-19 infection and pneumonia not requiring mechanical ventilation or mechanically ventilated for no more than 24 hours at time of informed consent • 3. The patient, guardian or legally acceptable representative has signed a written IRB-approved informed consent. Key Exclusion Criteria: • 1. New York Heart Association Class III or IV, cardiac disease, myocardial infarction within the past 6 months, unstable arrhythmia, or evidence of ischemia on ECG • 2. Any co-morbidity that may add risk to the treatment in the judgement of the investigator. • 3. Pregnant (positive serum test) or nursing women • 4. Unwillingness or inability to comply with procedures required in this protocol. • 5. AST (SGOT) or ALT (SGPT)>2.5× upper limit of normal (ULN) • 6. Bilirubin>1.5×ULN (except where bilirubin increase is due to Gilbert's Syndrome) • 7. Serum creatinine>2.0×ULN • 8. Absolute neutrophil count<1000 cells/mm^3 • 9. Platelet count<75,000/mm^3 • 10. Hemoglobin<8.0 g/dL • 11. Currently taking warfarin, apixaban, argatroban or rivaroxaban • 12. Current drug or alcohol abuse Study Assessments: The following will be monitored daily (see Table 3): • Review of concomitant medications • Adverse Events • Physical exam • Vital signs (temperature, blood pressure, pulse rate, respiratory rate and oxygen saturation by pulse oximeter) • Clinical symptoms (cough, dyspnea, nausea, vomiting, diarrhea) • Nasopharyngeal viral swab • Serum chemistry • CBC with differential • Chest X-ray • Urinalysis
Each dose is administered with food or 15-30 minutes after tube-feeding, where appropriate.
These patients had moderate to severe COVID-19-related pneumonia with hypoxia on supplemental oxygen.
Five patients were included in the analysis, and for comparison purposes, we used a control group with same-sex, same-severity patients (baseline characteristics). Univariate comparisons between the groups were performed with chi-square test for categorical variables and t-test or MannWhitney U-test for continuous variables, as appropriate. Time variables were compared with Cox proportional hazard regression, adjusted for age and background illnesses. CRP and lymphocyte changes were compared utilizing a repeated measures general linear model with a Bonferroni correction for multiple comparison.

[3] = of 6 moderate-to-severe patients

`O=C(NCc1ccncc1)C12CC3CC(C1)CC(c1ccc(Cl)cc1)(C3)C2` [opaganib, 3-(4-chlorophenyl)-adamantane-1-carboxylic acid (pyridin-4-ylmethyl) amide, hydrochloride salt] was tested, and the “50% inhibition reached in the concentration range tested” value ([1]; 0.05 to 11.25 μg/ml) was “neither 50% inhibition nor 50% cytotoxicity were reached”, the “concentration from which complete inhibition of infectious virus production is seen” value ([1]; SARS-CoV-2-infected HBEC, 3 days incubation) was ≥ 1 µg/mL and the “HR, time to weaning from HFNC, cases vs. controls” value ([2]; 95% CI: 0.07-1.7, p=0.2, Cox regression adjusted for age and background illnesses) was 0.3. The “HR, time to ambient air, cases vs. controls” value ([2]; 95% CI: 0.15-1.5) was 0.4, the “Lymphocytes, most recent” value ([2]; Patient 1 (14 d), baseline 1.6, 17 Apr. 2020) was 2.8 (17 Apr. 2020) 10^3/mm^3 and the “CRP, most recent” value ([2]; Patient 1 (14 d), baseline 15.1, 17 Apr. 2020) was 1 (17 Apr. 2020) mg/L. The “Clinical Assessment” value ([2]; Patient 1 (14 d on opaganib), started severe on maximal OptiFlow 3 Apr. 2020) was 3 Apr. 2020; RA by 16/4. As of 22/4, one negative, the “Lymphocytes, most recent” value ([2]; Patient 2 (14 d), baseline 1.1, 17 Apr. 2020) was 2.1 (17 Apr. 2020) 10^3/mm^3 and the “CRP, most recent” value ([2]; Patient 2 (14 d), baseline 14.2, 17 Apr. 2020) was 4.8 (17 Apr. 2020) mg/L. For the same compound, the “Clinical Assessment” value ([2]; Patient 2 (14 d), started severe+, planning for intubation 7 Apr. 2020) was 7 Apr. 2020; RA by 20 Apr. 4 2020, D/C on, the “Lymphocytes, most recent” value ([2]; Patient 3 (7 d), baseline 0.9, 17 Apr. 2020) was 1.2 (17 Apr. 2020) 10^3/mm^3 and the “CRP, most recent” value ([2]; Patient 3 (7 d), baseline 10.7, 17 Apr. 2020) was 1.7 (17 Apr. 2020) mg/L. For the same compound, the “Clinical Assessment” value ([2]; Patient 3 (7 d), moderate-severe, on OptiFlow 13 Apr. 2020, RA by 17 Apr. 2020) was 17 Apr. 2020, D/C on 19 Apr. 2020, the “Lymphocytes, most recent” value ([2]; Patient 4 (11 d), baseline 1.2, 22 Apr. 2020) was 1 (22 Apr. 2020) 10^3/mm^3 and the “CRP, most recent” value ([2]; Patient 4 (11 d), baseline 24.8, 22 Apr. 2020) was 17.4 (22 Apr. 2020) mg/L. For the same compound, the “Clinical Assessment” value ([2]; Patient 4 (11 d), started severe+ 70% OptiFlow on 13 Apr. 2020) was “RA on 22 Apr. 2020”, the “Clinical Assessment” value ([2]; Patient 5 (2 d), started moderate on 13 Apr. 2020, nasal cannula, D/C on 14 Apr. 2020 on RA) was “Dramatic improvement after one day on” and the “Lymphocytes, most recent” value ([2]; Patient 6 (5 d), baseline 1.35, 24 Apr. 2020) was 1.96 (24 Apr. 2020) 10^3/mm^3. For the same compound, the “CRP, most recent” value ([2]; Patient 6 (5 d), baseline 12.2, 24 Apr. 2020) was 6.8 (24 Apr. 2020) mg/L, the “adverse event leading to discontinuation” value ([2]; Patient 7 (1 d), also on HCQ and azithromycin, may or may not be related to opaganib) was “opaganib started. Diarrhea the next day, all 3 meds were stopped, followed by worsening SOB, on 75% OptiFlow” and the “C-Reactive Protein (CRP)” value ([2]; all six patients) was “reduction”. The “clinical improvement, including reduced supplemental oxygenation and higher lymphocyte counts” value ([2]; all six patients) was “measurable clinical improvement”, the “median time to weaning from high-flow nasal cannula (HFNC)” value ([2]; cases, controls 15 days) was 10 days and the “cases requiring mechanical ventilation” value ([2]; compared with 33% of controls) was “none”. The “lymphocyte count change vs. matched controls” value ([2]; five patients vs. same-sex, same-severity control group) was “significantly faster increase”, the “patients back to breathing room air” value [2, 3] was 5 patients and the “patients discharged from hospital” value [2, 3] was 3 patients. For the same compound, the “moderate to-severe patients improved significantly” value ([2]; of 6 patients treated (patient #7 excepted), opaganib plus standard-of-care) was 6 patients.
